Assay results: patent US20100048660A1, “TREATMENT OF DUCHENNE MUSCULAR DYSTROPHY” (priority 2006, published 2010)
Where two headings read alike, the source gives them in different places.

Test system: Utrophin A promoter linked to a luciferase reporter gene (H2K/mdx/Utro A reporter cell line)
Test: Luciferase reporter assay (murine H2K cells)
Assay type: cell-based
Conditions: Mus musculus, murine H2K mdx myoblasts, compound final concentration 10 μM, 48 hrs, read-out: Activity (luciferase reporter assay, relative to control)
Protocol: 1. Luciferase Reporter Assay (Murine H2K Cells)
The cell line used for the screen is an immortalized mdx mouse H2K cell line that has been stably transfected with a plasmid containing ≈5 kb fragment of the Utrophin A promoter including the first untranslated exon linked to a luciferase reporter gene (see FIG. 1).
Under conditions of low temperature and interferon containing media, the cells remain as myoblasts. These are plated into 96 well plates and cultured in the presence of compound for three days. The level of luciferase is then determined by cell lysis and reading of the light output from the expressed luciferase gene utilising a plate luminometer.
The H2K/mdx/Utro A reporter cell line was passaged twice a week until ≦30% confluent. The cells were grown at 33° C. in the presence of 10% CO2
The H2K/mdx/Utro A reporter cell line cells were plated out into 96 well plates (Falcon 353296, white opaque) at a density of approximately 5000 cells/well in 190 μl normal growth medium. The plates were then incubated at 33° C. in the presence of 10% CO2 for 24 hrs.
Compounds were dosed by adding 10 μl of diluted compound to each well giving a final concentration of 10 μM. The plates were then incubated for a further 48 hrs
Cells were then lysed in situ following the manufacture's protocols (Promega Steady-Glo Luciferase Assay System (E2520). Then counted for 10 seconds using a plate luminometer (Victorl420).

Row | Structure (SMILES) | activity at 10 µM (Table 1) | activity at 10 µM (Table 2)
1 | CCN(CC)c1ccc(-n2nc3ccc(NC(=O)c4ccc(Cl)cc4)cc3n2)cc1 [Example 32, 4-chloro-N-(2-(4-(diethylamino)phenyl)-2H-benzo[d][1,2,3]triazol-5-yl)benzamide] | < 200% | –
2 | CCN(CC)c1ccc(-n2nc3ccc(NC(=O)c4ccc(N(C)C)cc4)cc3n2)cc1 [Example 33, N-(2-(4-(diethylamino)phenyl)-2H-benzo[d][1,2,3]triazol-5-yl)-4-(dimethylamino)benzamide] | < 200% | –
3 | Cc1cc2nn(-c3ccc(N4CCOCC4)cc3)nc2cc1N [Example 34, 6-methyl-2-(4-morpholinophenyl)-2H-benzo[d][1,2,3]triazol-5-amine] | 201 to 300% | –
4 | CCC(=O)Nc1ccc2nn(-c3ccc(Cl)cc3)nc2c1 [Example 35, N-(2-(4-chlorophenyl)-2H-benzo[d][1,2,3]triazol-5-yl)propionamide] | > 401% | –
5 | CCCC(=O)Nc1ccc2nn(-c3ccc(Cl)cc3)nc2c1 [Example 36, N-(2-(4-chlorophenyl)-2H-benzo[d][1,2,3]triazol-5-yl)butyramide] | 301 to 400% | –
6 | CC(C)C(=O)Nc1ccc2nn(-c3ccc(Cl)cc3)nc2c1 [Example 37, N-(2-(4-chlorophenyl)-2H-benzo[d][1,2,3]triazol-5-yl)isobutyramide] | > 401% | –
7 | Nc1ccc2nn(-c3ccc(Cl)cc3)nc2c1 [Example 38, 2-(4-chlorophenyl)-2H-benzo[d][1,2,3]triazol-5-amine] | < 200% | –
8 | CC(=O)Nc1ccc2nn(-c3ccc(Cl)cc3)nc2c1 [Example 39, N-(2-(4-chlorophenyl)-2H-benzo[d][1,2,3]triazol-5-yl)acetamide] | > 401% | –
9 | Nc1ccc2nn(-c3ccc(N4CCCCC4)cc3)nc2c1 [Example 40, 2-(4-(piperidin-1-yl)phenyl)-2H-benzo[d][1,2,3]triazol-5-amine] | 201 to 300% | –
10 | CN(C)c1ccc(-n2nc3ccc(N)cc3n2)cc1 [Example 41, 2-(4-(dimethylamino)phenyl)-2H-benzo[d][1,2,3]triazol-5-amine] | 301 to 400% | –
11 | CN1CCN(c2ccc(-n3nc4ccc(N)cc4n3)cc2)CC1 [Example 42, 2-(4-(4-methylpiperazin-1-yl)phenyl)-2H-benzo[d][1,2,3]triazol-5-amine] | < 200% | –
12 | Cc1cc2nn(-c3ccc(Cl)cc3)nc2cc1N [Example 43, 2-(4-chlorophenyl)-6-methyl-2H-benzo[d][1,2,3]triazol-5-amine] | > 401% | –
13 | CS(=O)(=O)c1ccc2cn(-c3ccc(Cl)cc3)nc2c1 [Example 44, 2-(4-chlorophenyl)-6-(methylsulfonyl)-2H-indazole] | 201 to 300% | –
14 | O=[N+]([O-])c1ccc2cn(-c3ccc(Cl)cc3)nc2c1 [Example 45, 2-(4-chlorophenyl)-6-nitro-2H-indazole] | < 200% | –
15 | CC(C)C(=O)Nc1ccc2cn(-c3ccc(Cl)cc3)nc2c1 [Example 46, N-(2-(4-chlorophenyl)-2H-indazol-6-yl)isobutyramide] | > 401% | –
16 | CS(=O)(=O)c1ccc2nn(-c3ccc(Cl)cc3)[n+]([O-])c2c1 [Example 47, 2-(4-chlorophenyl)-6-(methylsulfonyl)-2H-benzo[d][1,2,3]triazole 1-oxide] | < 200% | –

Row | Structure (SMILES) | activity at 10 µM (Table 1) | activity at 10 µM (Table 2)
17 | Clc1ccc(-n2cc3ccccc3n2)cc1 [Example 48, 2-(4-chlorophenyl)-2H-indazole] | > 401% | –
18 | CS(=O)(=O)c1ccc2nn(-c3ccc(Cl)cc3)nc2c1 [Example 49, 2-(4-chlorophenyl)-5-(methylsulfonyl)-2H-benzo[d][1,2,3]triazole] | < 200% | –
19 | CS(=O)(=O)c1ccc2nn(-c3ccc(Cl)c(Cl)c3)nc2c1 [Example 50, 2-(3,4-dichlorophenyl)-5-(methylsulfonyl)-2H-benzo[d][1,2,3]triazole] | 201 to 300% | –
20 | CCS(=O)(=O)c1ccc2nn(-c3ccc(Cl)c(Cl)c3)nc2c1 [Example 51, 2-(3′,4′-dichlorophenyl)-5-(ethylsulfonyl)-benzotriazole] | 301 to 400% | –
21 | CCS(=O)(=O)c1ccc2nn(-c3ccc(Cl)cc3)nc2c1 [Example 52, 2-(4′-chlorophenyl)-5-(ethylsulfonyl)-benzotriazole] | > 401% | –
22 | CC(C)C(=O)Nc1ccc2nn(-c3ccc(Cl)c(Cl)c3)nc2c1 [Example 53, N-(2-(3,4-Dichlorophenyl)-2H-benzo[d][1,2,3]triazol-5-yl)isobutyramide] | > 401% | –
23 | CS(=O)(=O)c1ccc2nn(-c3ccc4ccccc4c3)[n+]([O-])c2c1 [Example 54, 6-(Methylsulfonyl)-2-(naphthalen-2-yl)-2H-benzo[d][1,2,3]triazole 1-oxide] | 201 to 300% | –
24 | CS(=O)(=O)c1ccc2nn(-c3ccc4ccccc4c3)nc2c1 [Example 55, 5-(Methylsulfonyl)-2-(naphthalen-2-yl)-2H-benzo[d][1,2,3]triazole] | > 401% | –
25 | CC(C)S(=O)(=O)c1ccc2cn(-c3ccc(Cl)cc3)nc2c1 [Example 56, 2-(4′-Chlorophenyl)-6-(isopropylsulfonyl)-2H-indazole] | > 401% | –
26 | Cc1ccc(-n2nc3ccc(N)cc3n2)cc1C [Example 63, 2-(3,4-dimethylphenyl)-2H-benzo[d][1,2,3]triazol-5-amine] | – | < 200%
27 | CCOc1ccc(-n2nc3cc(C)c(N)cc3n2)cc1 [Example 64, 2-(4-ethoxyphenyl)-6-methyl-2H-benzo[d][1,2,3]triazol-5-amine] | – | 201 to 300%
28 | Cc1ccc(-n2nc3cc(C)c(N)cc3n2)cc1 [Example 65, 6-methyl-2-p-tolyl-2H-benzo[d][1,2,3]triazol-5-amine] | – | 201 to 300%
29 | COc1ccc(-n2nc3cc(C)c(NC(C)=O)cc3n2)cc1 [Example 66, N-(2-(4-methoxyphenyl)-6-methyl-2H-benzo[d][1,2,3]triazol-5-yl)acetamide] | – | < 200%
30 | CC(=O)Nc1cc2nn(-c3ccccc3)nc2cc1C [Example 67, N-(6-methyl-2-phenyl-2H-benzo[d][1,2,3]triazol-5-yl)acetamide] | – | 201 to 300%
31 | CCc1ccc(-n2nc3ccc(N)cc3n2)cc1 [Example 68, 2-(4-ethylphenyl)-2H-benzo[d][1,2,3]triazol-5-amine] | – | 201 to 300%
32 | CC(=O)Nc1ccc2nn(-c3ccc(F)cc3)nc2c1 [Example 69, N-(2-(4-fluorophenyl)-2H-benzo[d][1,2,3]triazol-5-yl)acetamide] | – | 201 to 300%
